# Measured values from patent US10415054B2, “Designer circuit controlling diet-induced obesity” (ETH ZURICH, priority 2013, dated 2019).
# Experiments:
# [1] = biological target: T1, lipid-sensing receptor (LSR; TtgR-PPARα) (UniProt Q07869+Q9AIU0); assay: Fatty acid/fibrate-controlled SEAP expression in pKR135/pMG10-transgenic HT-1080; assay type: cell-based, human; settings: for sensitivity of LSR (SEAP expression): pKR135/pMG10-transgenic HT-1080, 48 h, FIG. 3d,e
# T1 construct: TtgR (phloretin-responsive repressor of Pseudomonas putida DOT-T1E); expressed in transfected cells; host or cells: HT-1080 (A1, A5; in A5 microencapsulated and implanted into mice); several rodent, primate and human cell lines (A2)
# T1 sequence (Q9AIU0+Q07869 with tags, fused parts or gaps): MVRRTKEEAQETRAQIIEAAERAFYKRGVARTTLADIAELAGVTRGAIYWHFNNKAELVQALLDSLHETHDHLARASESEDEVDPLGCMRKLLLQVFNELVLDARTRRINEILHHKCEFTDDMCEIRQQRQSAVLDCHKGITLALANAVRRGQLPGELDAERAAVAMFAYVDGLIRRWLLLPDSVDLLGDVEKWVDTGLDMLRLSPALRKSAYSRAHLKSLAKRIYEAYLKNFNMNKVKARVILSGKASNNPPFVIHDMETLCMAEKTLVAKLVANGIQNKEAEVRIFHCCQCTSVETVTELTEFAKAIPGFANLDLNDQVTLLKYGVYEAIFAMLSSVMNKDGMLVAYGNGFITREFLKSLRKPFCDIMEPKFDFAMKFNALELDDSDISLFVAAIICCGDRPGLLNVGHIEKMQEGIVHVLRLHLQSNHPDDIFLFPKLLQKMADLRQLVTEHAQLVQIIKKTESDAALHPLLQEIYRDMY
# Description: Wild-type Chinese hamster ovary cells (CHO-K1, ATCC: CCL-61) were cultured in ChoMaster® HTS (Cell Culture Technologies GmbH, Gravesano, Switzerland) containing 1% penicillin/streptomycin. All cell types were cultivated at 37° C. in a humidified atmosphere containing 5% CO2. […] After transfection, all cells were cultivated in their specific media containing different inducer concentrations and reporter protein levels were profiled after 48 h unless stated otherwise. […]
# [2] = biological target: T2, LSR sensor device (UniProt Q07869+Q9AIU0); assay: Serum SEAP in wild type mice implanted with microencapsulated pKR135/pMG10-transgenic HT-1080; assay type: in vivo; settings: wild type mice on standard diet, 48 h, FIG. 4a,b
# T2 construct: TtgR (phloretin-responsive repressor of Pseudomonas putida DOT-T1E); expressed in transfected cells; host or cells: HT-1080 (A1, A5; in A5 microencapsulated and implanted into mice); several rodent, primate and human cell lines (A2)
# T2 sequence (Q9AIU0+Q07869 with tags, fused parts or gaps): T1 sequence (Q9AIU0+Q07869 with tags, fused parts or gaps)
# From the text: (a-d) Standard low fat-fed wild type mice were implanted with microencapsulated pKR135-/pMG10-transgenic HT-1080 (2×10^6 cells/mouse) and received different doses of linoleic acid (LA) and palmitic acid (PA) (fatty acids, FA) (a), rapeseed oil (RO) (b) or were put on standard low fat (LF, 5 kcal % fat), medium fat (MF, 10 kcal % fat) and high fat (HF, 60 kcal % fat) diets (D) (c, d). Resulting blood SEAP (bSEAP) levels (a, b, d) and blood fat levels (BF) represented by serum cholesterol (C) and phospholipid (PL) concentrations (c) were quantified after 48 h (a, b, d) or 72 h (c). Data are mean±SEM, statistics by two-tailed t test; n=8 mice. *P<0.05, **P<0.005, ***P<0.0001 vs. zero lipid doses (a,b) or LF mice (c,d).
# Production of the human placental secreted alkaline phosphatase (SEAP) in culture was quantified according to a p-nitrophenylphosphate-based time course of light absorbance (Schlatter S. et al., Gene 282, 19-31 (2002)). Serum levels of SEAP were quantified using a chemiluminescence-based assay (Roche Diagnostics GmbH, Mannheim, Germany). […]
# [3] = biological target: T3, TtgA1 (TtgR-VP16) (Pseudomonas putida, UniProt Q9AIU0); assay: Phloretin-responsive gene switch (pMG10/pMG11) in HT-1080 exposed to linoleic acid; assay type: cell-based; settings: HT-1080 pMG10/pMG11, 48 h, FIG. 6
# T3 construct: expressed in transfected cells; host or cells: HT-1080
# Description: HT-1080 were cotransfected with the components encoding the phloretin-responsive gene switch (pMG10, (PTtgR1-SEAP-pA) and pMG11, (PSV40-TtgA1-pA)) and grown for 48 h in the presence of increasing linoleic acid (LA) concentrations before SEAP was profiled in the cell culture supernatant.
# (§1) Human embryonic kidney cells (HEK-293T, ATCC: CRL-11268), Baby hamster kidney cells (BHK-21, ATCC: CCL-10), African green monkey kidney cells (COS-7, ATCC: CRL-1651), human cervical adenocarcinoma cells (HeLa, ATCC: CCL-2), human fibrosarcoma cells (HT-1080, ATCC: CCL-121) and immortalized human mesenchymal stem cells (hMSC) (Simonsen, J. L. et al., Nat Biotechnol 20, 592-596 (2002)) were cultivated in Dulbecco's modified Eagle's medium (DMEM; Invitrogen, Basel, Switzerland) supplemented with 1% (v/v) penicillin/streptomycin solution (Sigma-Aldrich, Munich, Germany). Wild-type Chinese hamster ovary cells (CHO-K1, ATCC: CCL-61) were cultured in ChoMaster® HTS (Cell Culture Technologies GmbH, Gravesano, Switzerland) containing 1% penicillin/streptomycin. […]
# (§2) Production of the human placental secreted alkaline phosphatase (SEAP) in culture was quantified according to a p-nitrophenylphosphate-based time course of light absorbance (Schlatter S. et al., Gene 282, 19-31 (2002)). Serum levels of SEAP were quantified using a chemiluminescence-based assay (Roche Diagnostics GmbH, Mannheim, Germany).
# [4] = biological target: T1, lipid-sensing receptor (LSR; TtgR-PPARα); assay: Linoleic acid-induced SEAP expression in different cell lines cotransfected with pKR135/pMG10; assay type: cell-based; settings: several rodent, primate and human cell lines, 48 h, FIG. 2
# Description: Linoleic acid-induced SEAP expression in different cell lines. Cells were cotransfected with the LSR-encoding expression vector (pKR135; PhCMV-LSR-pA) and the PTtgR1-driven SEAP expression plasmid (pMG10; […]), grown in the presence of different linoleic acid (LA) concentrations, and SEAP levels were profiled in the culture supernatant after 48 h.
# as §1, with “Germany).” for “Germany). Wild-type Chinese hamster ovary cells (CHO-K1, ATCC: CCL-61) were cultured in ChoMaster® HTS (Cell Culture Technologies GmbH, Gravesano, Switzerland) containing 1% penicillin/streptomycin.”
# as §2
SMILES,sensitivity of LSR (SEAP expression) [1],also measured
O=C(CCc1ccc(O)cc1)c1c(O)cc(O)cc1O [phloretin],,"phloretin-triggered effect on fatty acid-induced transgene (SEAP) expression ([1]; HT-1080 induced by 100 μM linoleic acid, 48 h, FIG. 3c): shut down transgene expression"
CCCCCCCCCCCCCCCC(=O)O [palmitic acid],sensitive,SEAP in serum [2]: significant dose-dependent increase
CCCCCCCCCCCCCCCCCC(=O)O [stearic acid],sensitive,
Cc1ccc(C)c(OCCCC(C)(C)C(=O)O)c1 [gemfibrozil],sensitive,
CCCCC/C=C\C/C=C\CCCCCCCC(=O)O [linoleic acid],sensitive,sensitivity of the phloretin-responsive control element (SEAP) [3]: Insensitivity; SEAP in serum [2]: significant dose-dependent increase; SEAP induction [4]: SEAP was exclusively induced
Cc1cccc(Nc2cc(Cl)nc(SCC(=O)O)n2)c1C [WY-14643],sensitive,
CCCCC/C=C\C/C=C\C/C=C\C/C=C\CCCC(=O)O [arachidonic acid],sensitive,
CCCCCCCCCCCCCC(=O)O [myristic acid],sensitive,
CCCCCCCCCCCC(=O)O [lauric acid],sensitive,
CCCCCCCC/C=C\CCCCCCCC(=O)O [oleic acid],sensitive,
